Experimental data reported in ChEMBL document CHEMBL5634188, “Expanding TPD Horizons: Innovative Strategies Targeting BCL6 and SMARCA2” (ACS Med Chem Lett, 2024).

Key:
Type in all cases: cell-based
[1] = biological target: Protein cereblon/B-cell lymphoma 6 protein (Homo sapiens) (UniProt Q96SW2+P41182); assay: PROTAC activity at CRBN/N-terminal HiBiT tagged BCL6 in human HT-1080 cells assessed as induction of BCL6 degradation by measuring minimum efficacy incubated for 5 hrs by NANO-GLO HiBiT Lytic reagent based luminescence plate reader analysis
[2] = biological target: Protein cereblon/B-cell lymphoma 6 protein (Homo sapiens, UniProt P41182+Q96SW2); assay: PROTAC activity at CRBN/N-terminal HiBiT tagged BCL6 in human HT-1080 cells assessed as induction of BCL6 degradation incubated for 5 hrs by NANO-GLO HiBiT Lytic reagent based luminescence plate reader analysis
[3] = biological target: T1, Protein cereblon/SWI/SNF-related matrix-associated actin-dependent regulator of chromatin subfamily A member 2 (Homo sapiens, UniProt P51531+Q96SW2); assay: PROTAC activity at CRBN/N-terminal HiBiT-tagged SMARCA2 in human A549 cells assessed as induction of SMARCA2 degradation incubated for 6 hrs by Nano-Glo HiBiT Lytic reagent based luminescence plate reader analysis
[4] = biological target: T1, Protein cereblon/SWI/SNF-related matrix-associated actin-dependent regulator of chromatin subfamily A member 2; assay: PROTAC activity at CRBN/N-terminal HiBiT-tagged SMARCA2 in human A549 cells assessed as induction of SMARCA2 degradation by measuring maximal efficacy incubated for 6 hrs by Nano-Glo HiBiT Lytic reagent based luminescence plate reader analysis relative to control

T1 sequence (P51531 whole entry): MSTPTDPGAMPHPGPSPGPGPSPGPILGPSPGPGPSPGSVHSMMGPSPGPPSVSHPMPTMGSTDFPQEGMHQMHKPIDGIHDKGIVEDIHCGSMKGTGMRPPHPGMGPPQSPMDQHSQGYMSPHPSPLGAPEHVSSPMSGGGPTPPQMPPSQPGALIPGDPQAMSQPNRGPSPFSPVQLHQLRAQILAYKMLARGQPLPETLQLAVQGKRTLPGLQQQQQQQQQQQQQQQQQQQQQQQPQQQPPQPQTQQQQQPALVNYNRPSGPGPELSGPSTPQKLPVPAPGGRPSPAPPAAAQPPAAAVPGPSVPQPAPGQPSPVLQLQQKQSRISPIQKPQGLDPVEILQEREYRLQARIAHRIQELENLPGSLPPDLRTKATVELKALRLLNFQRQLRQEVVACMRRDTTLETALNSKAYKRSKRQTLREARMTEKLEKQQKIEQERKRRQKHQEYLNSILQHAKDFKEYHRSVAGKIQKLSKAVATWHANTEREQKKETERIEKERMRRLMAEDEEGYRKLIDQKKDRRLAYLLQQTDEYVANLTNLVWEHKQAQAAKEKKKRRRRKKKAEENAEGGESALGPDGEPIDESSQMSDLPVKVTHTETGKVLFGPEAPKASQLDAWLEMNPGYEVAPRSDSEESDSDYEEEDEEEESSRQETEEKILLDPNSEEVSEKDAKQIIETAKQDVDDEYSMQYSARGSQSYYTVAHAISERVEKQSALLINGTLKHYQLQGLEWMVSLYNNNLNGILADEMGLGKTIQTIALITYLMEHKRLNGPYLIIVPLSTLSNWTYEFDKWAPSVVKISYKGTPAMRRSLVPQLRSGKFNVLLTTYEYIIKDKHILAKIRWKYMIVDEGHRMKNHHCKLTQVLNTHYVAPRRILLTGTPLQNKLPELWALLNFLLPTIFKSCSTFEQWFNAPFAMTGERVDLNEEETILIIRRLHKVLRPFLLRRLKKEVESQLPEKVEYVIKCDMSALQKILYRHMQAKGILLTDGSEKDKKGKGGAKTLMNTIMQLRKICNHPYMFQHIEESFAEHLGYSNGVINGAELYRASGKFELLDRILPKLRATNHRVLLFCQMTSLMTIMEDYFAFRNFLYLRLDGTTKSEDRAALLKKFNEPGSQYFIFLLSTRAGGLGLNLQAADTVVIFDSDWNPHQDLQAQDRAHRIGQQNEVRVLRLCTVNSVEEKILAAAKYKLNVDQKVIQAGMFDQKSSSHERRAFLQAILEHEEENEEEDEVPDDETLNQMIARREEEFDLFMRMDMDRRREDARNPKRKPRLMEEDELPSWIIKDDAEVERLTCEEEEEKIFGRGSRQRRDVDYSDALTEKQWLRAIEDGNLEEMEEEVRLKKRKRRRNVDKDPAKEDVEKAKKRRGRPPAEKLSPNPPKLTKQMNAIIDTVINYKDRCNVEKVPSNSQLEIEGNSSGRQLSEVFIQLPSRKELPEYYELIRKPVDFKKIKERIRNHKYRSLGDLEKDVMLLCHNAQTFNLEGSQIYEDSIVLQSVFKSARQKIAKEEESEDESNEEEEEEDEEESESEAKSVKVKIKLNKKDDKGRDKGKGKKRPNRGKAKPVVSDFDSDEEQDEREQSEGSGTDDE
T1 sequence (Q96SW2 whole entry): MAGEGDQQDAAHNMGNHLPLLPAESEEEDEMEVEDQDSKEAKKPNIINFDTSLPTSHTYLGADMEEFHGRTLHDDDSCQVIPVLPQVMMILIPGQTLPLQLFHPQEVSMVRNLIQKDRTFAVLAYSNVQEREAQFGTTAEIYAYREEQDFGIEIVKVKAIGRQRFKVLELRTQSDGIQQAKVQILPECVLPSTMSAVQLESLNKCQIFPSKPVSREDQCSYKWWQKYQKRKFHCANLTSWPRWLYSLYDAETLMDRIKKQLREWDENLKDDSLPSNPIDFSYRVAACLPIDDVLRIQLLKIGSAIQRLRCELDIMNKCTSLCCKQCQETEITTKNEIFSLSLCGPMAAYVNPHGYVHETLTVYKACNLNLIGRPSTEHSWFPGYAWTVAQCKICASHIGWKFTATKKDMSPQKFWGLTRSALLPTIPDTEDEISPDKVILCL
Protein cereblon/B-cell lymphoma 6 protein (Homo sapiens), sequence (Q96SW2 whole entry, looked up, other chains not shown): as the sequence (Q96SW2 whole entry) above
Protein cereblon/B-cell lymphoma 6 protein, sequence (Q96SW2 whole entry, looked up, other chains not shown): as the sequence (Q96SW2 whole entry) above

## C[C@H]1CN(c2ncc(Cl)c(Nc3ccc4c(c3)c3c(c(=O)n4C)OCC(F)(F)[C@H](C4CC4)N3)n2)CCN1CC1CCN(c2cccc3c(C4CCC(=O)NC4=O)nn(C)c23)CC1 (stereo not given in full)
[1]
  Emin: < 30%

## C[C@H](C1CCN(c2ncc(Cl)c(Nc3ccc4c(c3)c3c(c(=O)n4C)OCC(F)(F)[C@H](C4CC4)N3)n2)CC1)C1CCN(c2cccc3c(C4CCC(=O)NC4=O)nn(C)c23)CC1 (stereo not given in full)
[1]
  Emin: < 30%
[2]
  EC50: ≤ 25 nM

## Nc1nnc(-c2ccccc2O)cc1C1C[C@H]2COC[C@@H](C1)N2c1cccc(OC2CCN(C(=O)CCC3CN(c4cccc5c4CCN5[C@@H]4CCC(=O)NC4=O)C3)CC2)c1 (stereo not given in full)
[3]
  DC50: 13 nM

## Nc1nnc(-c2ccccc2O)cc1C1C[C@H]2COC[C@@H](C1)N2c1cccc(OC2CCN(C(=O)CC3(O)CCN(c4cccc5c4CCN5C4CCC(=O)NC4=O)CC3)CC2)c1 (stereo not given in full)
[3]
  DC50: 5.8 nM
[4]
  Emax: 22.9%

## CN(C(=O)N1CCC(Oc2cccc(N3[C@@H]4COC[C@H]3CC(c3cc(-c5ccccc5O)nnc3N)C4)c2)CC1)C1CCN(c2cccc3c2CCN3[C@@H]2CCC(=O)NC2=O)CC1 (stereo not given in full)
[3]
  DC50: 9.47 nM

## Cn1c(=O)c2c(c3cc(Nc4nc(N5CCN(CC6CCN(c7cccc8c7C(=O)N(C7CCC(=O)NC7=O)C8=O)CC6)CC5)ncc4Cl)ccc31)N[C@@H](C1CC1)C(F)(F)CO2 (stereo not given in full)
[1]
  Emin: < 30%

## CN(c1cccc(N2CCC(O)(CC(=O)N3CCC(Oc4cccc(N5[C@@H]6COC[C@H]5CC(c5cc(-c7ccccc7O)nnc5N)C6)c4)CC3)CC2)c1)C1CCC(=O)NC1=O (stereo not given in full)
[3]
  DC50: 13.1 nM

## Cn1nc(C2CCC(=O)NC2=O)c2cccc(N3CCN(CC4CCN(c5ncc(Cl)c(Nc6ccc7c(c6)c6c(c(=O)n7C)OCC(F)(F)[C@H](C7CC7)N6)n5)CC4)CC3)c21 (stereo not given in full)
[1]
  Emin: < 30%
